≈ marks a conversion by molar mass, not a printed value. Where two headings read alike, the source gives them in different places.
Columns and labels:
S. aureus C0032 [1] = experiment: MIC by broth micro-dilution; assay type: cell-based; settings: S. aureus C0032, aph(3')-IIIa ant(6)
[2] = system: P. aeruginosa clinical isolates; experiment: MIC by broth micro-dilution; assay type: cell-based
APH(2”)-IVa [3] = biological target: T1, APH(2”)-IVa (Enterococcus casseliflavus, UniProt O68183); experiment: biochemical; assay type: binding; settings: read-out: ΔTm (°C)
T1 sequence (O68183 1-301): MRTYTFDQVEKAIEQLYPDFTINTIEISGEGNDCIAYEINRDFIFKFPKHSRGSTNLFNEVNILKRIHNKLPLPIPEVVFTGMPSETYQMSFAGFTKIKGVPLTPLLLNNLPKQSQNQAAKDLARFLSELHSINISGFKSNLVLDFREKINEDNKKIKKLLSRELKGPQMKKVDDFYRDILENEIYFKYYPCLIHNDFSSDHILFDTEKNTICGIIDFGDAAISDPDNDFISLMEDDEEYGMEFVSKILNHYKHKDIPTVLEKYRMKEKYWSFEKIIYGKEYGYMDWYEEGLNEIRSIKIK
Protocol: Thermal shift assays were performed using an RTqPCR machine Mx3005P (Stratagene) in 96-well plates (Thermo-Fast low Profile, ThermoScientific) by mixing the protein at 5 µM, SYPRO® Orange (Sigma Aldrich) at […], and fragments at 500 µM. Fluorescence was followed with Cy3 and SYAL filters. Denaturation curves were collected using MxPro-Mx3005P v4.10 software and analyzed using the implemented version of wTSA-CRAFT[36].

APH(2”)-IVa [4] = biological target: T1, APH(2”)-IVa
APH(2”)-IVa [5] = biological target: T1, APH(2”)-IVa; experiment: biochemical; settings: Ki (µM), inhibition constant, ATP-competitive; 0-2 mM MgATP, 100 µM kanamycin A, global fitting
P. aeruginosa C0307 = experiment: Checkerboard assay of 83 with kanamycin A; assay type: cell-based; settings: for MIC of kanamycin A: [83] 0 µg mL^−1, 18 h at 37 °C; for checkerboard well reading (growth): 83 0 µg.mL-1
S. aureus C0032 [6] = experiment: Checkerboard assay of 83 with kanamycin A; assay type: cell-based; settings: for checkerboard well reading (growth): Supp. Figure 3 C, 83 0 µg.mL-1
[7] = Staphylococcus aureus, read-out: MIC
[8] = Pseudomonas aeruginosa, P. aeruginosa C0214, aph(3')-IIb, read-out: MIC
[9] = Pseudomonas aeruginosa, P. aeruginosa C0307, aph(3')-IIb, read-out: MIC

NCC[C@H](O)C(=O)N[C@@H]1C[C@H](N)[C@@H](O[C@H]2O[C@H](CN)[C@@H](O)[C@H](O)[C@H]2O)[C@H](O)[C@H]1O[C@H]1O[C@H](CO)[C@@H](O)[C@H](N)[C@H]1O [Amikacin]
MIC (S. aureus C0032 [1]; [7]): 16 to 32 µg/mL (≈ 27.3 to 54.6 µM)
MIC [2, 8]: 8 to 32 µg/mL (≈ 13.7 to 54.6 µM)
MIC [2, 9]: 4 to 8 µg/mL (≈ 6.83 to 13.7 µM)

Nc1ccc(Br)cn1 [Compound 1]
ΔTm at 500 µM (APH(2”)-IVa [3]): 0.5 °C

Clc1cnc2[nH]ccc2c1 [Compound 2, 5-chloro-7-azaindole]
Inhibition relative to F136 (APH(2”)-IVa [4]; 500 µM, times more inhibition than F136): 5.9 times
Ki (APH(2”)-IVa [5]): 9.63 µM

O=C(Nc1ccc(Cl)cc1)Nc1ccc(Cl)cn1 [Compound 6]
ΔTm at 500 µM (APH(2”)-IVa [3]): 0.17 °C

O=C(Nc1ccc(Br)cc1)Nc1ccc(Br)cn1 [Compound 7]
ΔTm at 500 µM (APH(2”)-IVa [3]): -0.26 °C

O=C(O)CNC(=O)Nc1ccc(Br)cn1 [Compound 8]
ΔTm at 500 µM (APH(2”)-IVa [3]): -0.25 °C

Clc1ccc(NCCc2ccccc2)nc1 [Compound 11]
ΔTm at 500 µM (APH(2”)-IVa [3]): 0.48 °C

Nc1ncc(Cl)cc1S(=O)(=O)N1CCCC(N)C1 (centres unmarked) [Compound 16]
ΔTm at 500 µM (APH(2”)-IVa [3]): 1.7 °C

Nc1ncc(Cl)cc1S(=O)(=O)N1CCCNCC1 [Compound 17]
ΔTm at 500 µM (APH(2”)-IVa [3]): 1.05 °C

CC1CCCN(S(=O)(=O)c2cc(Cl)cnc2N)C1CN (centres unmarked) [Compound 22]
ΔTm at 500 µM (APH(2”)-IVa [3]): 0.2 °C

Nc1ncc(Cl)cc1S(=O)(=O)NC1CCCNC1 (centres unmarked) [Compound 23]
ΔTm at 500 µM (APH(2”)-IVa [3]): 0.33 °C

Nc1ncc(Cl)cc1S(=O)(=O)N1CCCCC1c1ncc[nH]1 (centres unmarked) [Compound 24]
ΔTm at 500 µM (APH(2”)-IVa [3]): 1.99 °C

Nc1ncc(Cl)cc1S(=O)(=O)NCCCN1CCC(O)CC1 [Compound 25]
ΔTm at 500 µM (APH(2”)-IVa [3]): 0.6 °C

Cn1nccc1C1CCCN(c2cc(N)ncc2Cl)C1 (centres unmarked) [Compound 27]
ΔTm at 500 µM (APH(2”)-IVa [3]): -1.45 °C

Nc1cc(N2CCC(C(=O)N3CCCCC3)CC2)c(Cl)cn1 [Compound 28]
ΔTm at 500 µM (APH(2”)-IVa [3]): -1.78 °C

Nc1cc(N2CCOC(c3ccccc3)C2)c(Cl)cn1 (centres unmarked) [Compound 30]
ΔTm at 500 µM (APH(2”)-IVa [3]): -1.22 °C

O=C(NCCc1ccccc1)c1cc(NC2CC2)ncc1Cl [Compound 36-1]
Ki (APH(2”)-IVa [5]): 66.1 µM

O=C(NCCc1ccc(O)cc1)c1cc(NC2CC2)ncc1Cl [Compound 36-2]
Ki (APH(2”)-IVa [5]): 11.9 µM

NC(=O)CNC(=O)c1cc(NC2CC2)ncc1Cl [Compound 36-3]
Ki (APH(2”)-IVa [5]): 32.3 µM

O=C(NCc1ccccc1)c1cc(NC2CC2)ncc1Cl [Compound 36-4]
Ki (APH(2”)-IVa [5]): 79.1 µM

O=C(NCCO)c1cc(NC2CC2)ncc1Cl [Compound 36-5]
Ki (APH(2”)-IVa [5]): 25.6 µM

NNC(=O)c1cc(NC2CC2)ncc1Cl [Compound 36-6]
Ki (APH(2”)-IVa [5]): 11.4 µM

CN(C)CCNC(=O)c1cc(NC2CC2)ncc1Cl [Compound 36-7]
Ki (APH(2”)-IVa [5]): 18.6 µM

NCCNC(=O)c1cc(NC2CC2)ncc1Cl [Compound 36-8]
Ki (APH(2”)-IVa [5]): 16.3 µM

O=C(NCCc1ccn(-c2ccccc2)n1)c1cc(NC2CC2)ncc1Cl [Compound 36-9]
Ki (APH(2”)-IVa [5]): 13.4 µM

O=C(Nc1ccc(O)cc1)Nc1ccc(F)cc1 [Compound 37]
ΔTm at 500 µM (APH(2”)-IVa [3]): 1.17 °C

Nc1cncc(-c2cc[nH]n2)c1 [Compound 58]
ΔTm at 500 µM (APH(2”)-IVa [3]): 1.18 °C

O=Cc1cncc(-c2cc[nH]n2)c1 [Compound 66]
ΔTm at 500 µM (APH(2”)-IVa [3]): 0.54 °C

COC(=O)c1cncc(-c2cc[nH]n2)c1 [Compound 67]
ΔTm at 500 µM (APH(2”)-IVa [3]): 1.16 °C

Nc1cc(-c2ccn[nH]2)ccn1 [Compound 68]
Ki (APH(2”)-IVa [5]): 81.9 µM
ΔTm at 500 µM (APH(2”)-IVa [3]): 1.29 °C

O=C(O)c1c[nH]c2ncc(Cl)cc12 [Compound 79]
Ki (APH(2”)-IVa [5]): 27.5 µM

NC(=O)c1c[nH]c2ncc(Cl)cc12 [Compound 80]
Ki (APH(2”)-IVa [5]): 10.3 µM

CNC(=O)c1c[nH]c2ncc(Cl)cc12 [Compound 81]
Ki (APH(2”)-IVa [5]): 9.47 µM

CN(C)C(=O)c1c[nH]c2ncc(Cl)cc12 [Compound 82]
Ki (APH(2”)-IVa [5]): 19.7 µM

Clc1cnc2[nH]ccc2c1-c1cn[nH]c1 [Compound 84]
Ki (APH(2”)-IVa [5]): 1.58 µM

Clc1cnc2[nH]ccc2c1-c1ccc[nH]1 [Compound 85]
Ki (APH(2”)-IVa [5]): 1.74 µM

Clc1cnc2[nH]ccc2c1-c1ccsc1 [Compound 86]
Ki (APH(2”)-IVa [5]): 1.75 µM

Nc1ccccn1 [Compound F68]
Inhibition (APH(2”)-IVa [4]): 11%
Ki (APH(2”)-IVa [5]): 260 µM
ΔTm at 500 µM (APH(2”)-IVa [3]): -0.27 °C

Nc1ccc(Cl)cn1 [Compound F69]
Inhibition relative to F68 (APH(2”)-IVa [4]; 500 µM, times more inhibition than F68): 6.2 times

c1cnc2[nH]ccc2c1 [Compound F136, 7-azaindole]
ΔTm at 500 µM (APH(2”)-IVa [3]): 0.06 °C

CC(=O)c1cc2ccccc2oc1=O [Compound F144]
ΔTm at 500 µM (APH(2”)-IVa [3]): 0.09 °C

OCc1c[nH]c2ncccc12 [Compound F355, 3-hydroxymethyl-7-azaindole]
ΔTm at 500 µM (APH(2”)-IVa [3]): -0.41 °C

C[C@@H](O)[C@H]1C(=O)N2C(C(=O)O)=C(S[C@@H]3CN[C@H](CNS(N)(=O)=O)C3)[C@H](C)[C@H]12 [Doripenem]
MIC (S. aureus C0032 [1]; [7]): > 4 µg/mL
MIC [2, 8]: 0.5 to 1 µg/mL (≈ 1.19 to 2.38 µM)
MIC [2, 9]: 0.25 µg/mL (≈ 0.595 µM)

C[C@@H](O)[C@H]1C(=O)N2C(C(=O)O)=C(S[C@@H]3CN[C@H](C(=O)Nc4cccc(C(=O)O)c4)C3)[C@H](C)[C@H]12 [Ertapenem]
MIC (S. aureus C0032 [1]; [7]): 4 µg/mL (≈ 8.41 µM)
MIC [2, 8]: > 2 µg/mL
MIC [2, 9]: 8 to 16 µg/mL (≈ 16.8 to 33.6 µM)

CNC(C)C1CCC(N)C(OC2C(N)CC(N)C(OC3OCC(C)(O)C(NC)C3O)C2O)O1 (centres unmarked) [Gentamicin]
MIC (S. aureus C0032 [1]; [7]): < 1 µg/mL
MIC [2, 8]: 2 µg/mL (≈ 4.19 µM)
MIC [2, 9]: 2 µg/mL (≈ 4.19 µM)

C[C@@H](O)[C@H]1C(=O)N2C(C(=O)O)=C(SCCN=CN)C[C@H]12 [Imipenem]
MIC [2, 8]: > 2 µg/mL
MIC [2, 9]: 2 µg/mL (≈ 6.68 µM)

C[C@@H](O)[C@H]1C(=O)N2C(C(=O)O)=C(S[C@@H]3CN[C@H](C(=O)N(C)C)C3)[C@H](C)[C@H]12 [Meropenem]
MIC (S. aureus C0032 [1]; [7]): > 4 µg/mL
MIC [2, 8]: 0.5 to 1 µg/mL (≈ 1.3 to 2.61 µM)
MIC [2, 9]: 0.063 to 0.125 µg/mL (≈ 0.164 to 0.326 µM)

[H]/N=C(/N)N[C@H]1[C@H](O)[C@@H](O)[C@H](O[C@@H]2O[C@@H](C)[C@](O)(C=O)[C@H]2O[C@@H]2O[C@@H](CO)[C@H](O)[C@@H](O)[C@@H]2NC)[C@@H](N/C(N)=N\[H])[C@@H]1O [Streptomycin]
MIC (S. aureus C0032 [1]; [7]): 2 to 4 µg/mL (≈ 3.44 to 6.88 µM)
MIC [2, 8]: 32 µg/mL (≈ 55 µM)
MIC [2, 9]: 64 µg/mL (≈ 110 µM)

kanamycin A [reference compound]
MIC (S. aureus C0032 [1]): 4096 µg/mL
MIC ([2]; P. aeruginosa 1676, aph(3')-IIb): 128 µg/mL
MIC ([2]; P. aeruginosa 1761, aph(3')-IIb): 128 µg/mL
MIC ([2]; P. aeruginosa 1766, aph(3')-IIb): 128 µg/mL
MIC ([2]; P. aeruginosa 1781, aph(3')-IIb): 512 µg/mL
MIC ([2]; P. aeruginosa 1869, aph(3')-IIb aac(6')-Ib3): 1024 µg/mL
MIC ([2]; P. aeruginosa C0214, aph(3')-IIb): 256 to 512 µg/mL
MIC ([2]; P. aeruginosa C0307, aph(3')-IIb): 64 to 128 µg/mL
MIC ([2]; P. aeruginosa C0307, aph(3')-IIb, listed as Kanamycin A): 64 to 128 µg/mL
MIC of kanamycin A (P. aeruginosa C0307; 0 µg mL^−1 imipenem): 64 µg/mL
MIC of kanamycin A (P. aeruginosa C0307; 0.05 µg mL^−1 imipenem): 64 µg/mL
checkerboard well reading (growth) (P. aeruginosa C0307; Supp. Figure 3 A, kanamycin A 2 µg.mL-1): 1.208
checkerboard well reading (growth) (P. aeruginosa C0307; Supp. Figure 3 A, kanamycin A 4 µg.mL-1): 1.193
checkerboard well reading (growth) (P. aeruginosa C0307; Supp. Figure 3 A, kanamycin A 8 µg.mL-1): 1.188
checkerboard well reading (growth) (P. aeruginosa C0307; Supp. Figure 3 A, kanamycin A 16 µg.mL-1): 1.223
checkerboard well reading (growth) (P. aeruginosa C0307; Supp. Figure 3 A, kanamycin A 32 µg.mL-1): 1.192
checkerboard well reading (growth) (P. aeruginosa C0307; Supp. Figure 3 A, kanamycin A 64 µg.mL-1): 0.162
checkerboard well reading (growth) (P. aeruginosa C0307; Supp. Figure 3 A, kanamycin A 128 µg.mL-1): 0.039
checkerboard well reading (growth) (P. aeruginosa C0307; Supp. Figure 3 B, kanamycin A 2 µg.mL-1): 1.210
checkerboard well reading (growth) (P. aeruginosa C0307; Supp. Figure 3 B, kanamycin A 4 µg.mL-1): 1.193
checkerboard well reading (growth) (P. aeruginosa C0307; Supp. Figure 3 B, kanamycin A 8 µg.mL-1): 1.143
checkerboard well reading (growth) (P. aeruginosa C0307; Supp. Figure 3 B, kanamycin A 16 µg.mL-1): 1.167
checkerboard well reading (growth) (P. aeruginosa C0307; Supp. Figure 3 B, kanamycin A 32 µg.mL-1): 1.151
checkerboard well reading (growth) (P. aeruginosa C0307; Supp. Figure 3 B, kanamycin A 64 µg.mL-1): 0.174
checkerboard well reading (growth) (P. aeruginosa C0307; Supp. Figure 3 B, kanamycin A 128 µg.mL-1): 0.043
MIC of kanamycin A (S. aureus C0032 [6]; 0.125 µg mL^−1 imipenem, [83] 0 µg mL^−1, 18 h at 37 °C): 4096 µg/mL
checkerboard well reading (growth) (S. aureus C0032 [6]; kanamycin A 2 µg.mL-1): 0.337
checkerboard well reading (growth) (S. aureus C0032 [6]; kanamycin A 4 µg.mL-1): 0.322
checkerboard well reading (growth) (S. aureus C0032 [6]; kanamycin A 8 µg.mL-1): 0.304
checkerboard well reading (growth) (S. aureus C0032 [6]; kanamycin A 16 µg.mL-1): 0.292
checkerboard well reading (growth) (S. aureus C0032 [6]; kanamycin A 32 µg.mL-1): 0.272
checkerboard well reading (growth) (S. aureus C0032 [6]; kanamycin A 64 µg.mL-1): 0.258
checkerboard well reading (growth) (S. aureus C0032 [6]; kanamycin A 128 µg.mL-1): 0.312

Source: publication PMC12749166, “Fragment-based drug design of a bacterial kinase inhibitor capable of increasing the antibiotic sensitivity of clinical isolates” (Communications Chemistry, 2025)
